Reference: ChEMBL document CHEMBL3045087, “Physicochemical interaction of antitumor acridinone derivatives with DNA in view of QSAR studies” (2011)

Assays:
DNA = details: Bos taurus
Description: Binding affinity to Bos taurus (calf) thymus DNA assessed as change in melting temperature at drug to DNA base pair ratio 0.25 M

P388 = assay: Antitumor activity against Mus musculus (mouse) P388 cells xenografted in Mus musculus (mouse) assessed as increase in survival time relative to control; format: functional; set-up: concentration or dose not given beside the values

SMILES | ΔTm (DNA) | Increase in survival time (P388)
CN(C)CCN(C)c1ccc2nnn3c4ccc(O)cc4c(=O)c1c23 | 8.1 °C | 10%
CN(C)CCCNc1ccc2ncn3c4ccc(O)cc4c(=O)c1c23 | 3.5 °C | 120%
CCN(CC)CCNc1ccc2ncn3c4ccc(OC)cc4c(=O)c1c23 | 11.5 °C | 96%
CCN(CC)CCNc1ccc2ncn3c4ccccc4c(=O)c1c23 | 7.2 °C | 55%
CN(C)CCNc1ccc2nnn3c4ccccc4c(=O)c1c23 | 9.1 °C | 77%
CN(C)CCNc1ccc2ncn3c4ccccc4c(=O)c1c23 | 9.5 °C | 90%
Cc1ccc2c(c1)c(=O)c1c(NCCCN(C)C)ccc3nnn2c31 | 11.5 °C | 18%
CCN(CC)CCNc1ccc2ncn3c4ccc(O)cc4c(=O)c1c23 [C-1311] | 13.7 °C | 93%
CCN(CC)CCNc1ccc2ncn3c4ccc(C(C)(C)C)cc4c(=O)c1c23 | 2.4 °C | 0%
CN(C)CCCCCNc1ccc2ncn3c4ccccc4c(=O)c1c23 | 9.9 °C | 10%
CCNCCNc1ccc2nnn3c4ccc(O)cc4c(=O)c1c23 | 7.1 °C | 78%
CN(C)CCNc1ccc2ncn3c4ccc(O)cc4c(=O)c1c23 | 12.3 °C | 110%
CN(C)CCNc1ccc2nnn3c4ccc(C(C)(C)C)cc4c(=O)c1c23 | 6.8 °C | 0%
CCN(CC)CCCCCNc1ccc2ncn3c4ccc(C)cc4c(=O)c1c23 | 10.5 °C | 20%
CCN(CC)CCNc1ccc2ncn3c4cc(O)ccc4c(=O)c1c23 | 8.3 °C | 27%
CN(C)CCCNc1ccc2nnn3c4ccc(O)cc4c(=O)c1c23 | 15.1 °C | 165%
CN(C)CCNc1ccc2nnn3c4ccc(O)cc4c(=O)c1c23 | 13.1 °C | 102%
CCN(CC)CCNc1ccc2nc(C)n3c4ccc(O)cc4c(=O)c1c23 | 15.3 °C | 185%
CN(C)CCCNc1ccc2ncn3c4ccccc4c(=O)c1c23 | 11.5 °C | 25%
CN(C)CCCCCNc1ccc2ncn3c4ccc(O)cc4c(=O)c1c23 | 13.1 °C | 85%
